The text below walks through data of US20180352845A1, “NUTRITIONAL COMPOSITIONS AND INFANT FORMULAS TO PROMOTE MYELINATION IN THE BRAIN” (NESTEC S.A., priority 2015, published 2018).

This assay relates to brain myelination (myelin water fraction). The assay is described as follows: Cross-sectional correlation analysis (GLM) of infant formula nutrient composition vs brain myelination by mcDESPOT MRI. The following applies: children up to 5 years fed different infant formulas during infancy; voxel-wise correlations, p<0.05 corrected; inter-variable correlation threshold 0.9. In kind it is in vivo, human. As to the method: MRI brain scans of infants and children between 0 and 5 years were acquired using a white matter imaging technique. This technique provides a quantitative measure, the Myelin Water Fraction (MWF), which is a surrogate marker of myelin content. When mapped as a function of time across early childhood, myelination trajectories can be generated.
Infant formula composition: six infant formulas fed to infants participating in study were analyzed for their composition/level of myelin-relevant nutrients.
Infants included in this study were drawn from a larger longitudinal study of normal brain and behavioral development: the Brown university Assessment of Myelination and Behavior Across Maturation (BAMBAM). To focus on neurotypical development, children with known potential risk factors for learning, neurologic, or psychiatric disorders were specifically excluded during recruitment and enrollment. Thus, children with in utero alcohol or illicit substance exposure, premature (<37 weeks gestation) or multiple birth, fetal ultrasound abnormalities, complicated pregnancy (e.g., preeclampsia), APGAR scores <8, NICU admission, neurological disorder (e.g., head injury, epilepsy), psychiatric or developmental disorders in the infant, parents or siblings (including maternal depression requiring medication) were excluded. Ongoing screenings, such as the MCAT for autism, or CBCL for behavioral problems, were further used to remove enrolled children with clinically concerning behaviors or overt medical conditions (such as autism spectrum disorders).
A combination of retrospective and prospective data were acquired from parents via detailed medical histories and parental interview on type of infant formula used, percentage of breastfeeding to formula feeding, and length of exclusive breastfeeding. This information was updated at each study visit, which occurred approximately every 6 months for children under 2 years, and yearly for older children. Using this information, children were categorized into one of 2 groups: #1. Exclusively formula-fed; and #2. Exclusively breastfed for at least 90 days (3 months). Children who were fed a combination of breastmilk and formula within 3 months were excluded from our analysis. Infants within the exclusively formula-fed group were further sub-divided based on parental reports of the main infant formula used throughout the first 3 months. Main formula was defined as that given 90% of the time or more (in the case were parents used an alternate brand during vacation, for example).
Using these criteria, 94 exclusively formula-fed infants and young children were selected into group #1. These included 13 children who received formula #2; 28 who received formula #5; 8 who received formula #3; 39 who received formula #4; 5 who received formula #1 and 1 who received formula #6. A sample of 52 exclusively breast-fed infants were also selected and matched to the over formula-fed group with regards to mean age, gestation duration, birth weight, male:female ratio, ethnicity ratio, maternal education, family size, and number of languages spoken in the home (in addition to English).
Each infant was scanned using the mcDESPOT (multicomponent Driven Equilibrium Single Pulse Observation of T1 and T2) white matter imaging technique Deoni et al. (Magn. Reson. Med. 2008, 60:1372-1387), which provides a quantitative measure of the myelin water fraction (MWF) at each imaging point throughout the brain. All infants were scanned during natural (i.e. non-sedated) sleep using acoustically-muffled mcDESPOT imaging protocols. Total imaging times ranged from 19 minutes for the youngest toddlers to 24 minutes for the older 4 year-old children.

In the case of `CCCCC/C=C\C/C=C\C/C=C\C/C=C\CCCC(=O)O` [ARA, arachidonic acid], the “nutritional drivers for myelination indicated by the final general linear model” value (“nutritional drivers” below) is reported as “identified drivers”. In the case of `[Mg+2]` [Magnesium] it was “identified drivers”; in that of `[Ca+2]` [calcium], “identified drivers”; in that of `[P]` [phosphorus], “identified drivers”. In the case of `[Zn]` [zinc] it was “identified drivers”; in that of iron, “identified drivers”. Regarding phosphatidylcholine, the “nutritional drivers” value is reported as “identified drivers”.

Turning to phosphatidylinositol, the “nutritional drivers” value is reported as “identified drivers”. In the case of sphingomyelin, the “nutritional drivers” value was “identified drivers”.
